PubChem BioAssay AID792 (PCMD, 2007)
Records with an inconclusive call do not appear. Activity calls are given as the source filed them. The rule behind the calls is not given here.

Biological target: S. cerevisiae eIF2B mutant, luciferase reporter luminescence
Experiment: eIF2B reporter inhibitors in yeast strains, dose response, S. cerevisiae, mutant, wild-type, luminescence, growth (AID 792)
[1] = measured here: mutant yeast growth
[2] = S. cerevisiae wild-type, luminescence

COc1ccccc1NC(=O)CSc1nc(O)cc(=O)n1C
IC50: > 100 µM (inactive) | IC50 [1]: > 100 µM

O=C(c1ccco1)N1CCN(C(=O)c2ccccc2Oc2ccccc2)CC1
IC50: > 100 µM (inactive) | IC50 [1]: > 100 µM

CCc1ccc2c(c1)C1(NN=C(c3ccc(C)cc3)S1)C(=O)N2 (configuration not stated)
IC50: inactive | IC50 [2]: > 100 µM | IC50 [1]: 99 µM

O=c1c2ccccc2nc(CN2CCOCC2)n1-c1ccccc1F
IC50: > 100 µM (inactive) | IC50 [1]: > 100 µM

CC(=O)c1cnc2c(-c3ccc(Cl)cc3)c(C)nn2c1C
IC50: > 100 µM (inactive) | IC50 [1]: > 100 µM

CCN(CC)c1ncnc2sc(C(=O)N3CCN(c4ccccc4)CC3)c(C)c12
IC50: > 100 µM (inactive) | IC50 [1]: > 100 µM

CC(C)c1[nH]c(=O)c(C#N)c2c1COC(C)(C)C2
IC50: > 100 µM (inactive) | IC50 [1]: > 100 µM

O=C(NCCc1ccccn1)c1cccc(S(=O)(=O)N2CCCCCC2)c1
IC50: > 100 µM (inactive) | IC50 [1]: > 100 µM

CCN(C(C)=O)c1nc(CSc2nnc(NC(C)C)s2)cs1
IC50: > 100 µM (inactive) | IC50 [1]: > 100 µM

O=C(CCN1CCN(Cc2ccccc2)CC1)Nc1cccc(Cl)c1
IC50: > 100 µM (inactive) | IC50 [1]: > 100 µM

Oc1ccc2ccc3cccc[n+]3c2c1
IC50: > 100 µM (inactive) | IC50 [2]: > 100 µM | IC50 [1]: > 100 µM

O=C(O)c1cc2c(ccc3ccccc32)[nH]1
IC50: > 100 µM (inactive) | IC50 [1]: > 100 µM

CN1C(=O)CC2(CC(=O)N(Cc3ccccc3)C2)C1=O (configuration not stated)
IC50: > 100 µM (inactive) | IC50 [1]: > 100 µM

C=CCNc1nc(-c2cccc(OC)c2O)nc2ccccc12
IC50: > 100 µM (inactive) | IC50 [1]: > 100 µM

CN1C(=O)NC(c2ccccc2)C2=C1CN(c1cccc(C(F)(F)F)c1)C2=O (configuration not stated)
IC50: > 100 µM (inactive) | IC50 [1]: > 100 µM

CNC(=O)CSc1nc(N)c2c3c(sc2n1)CCC3
IC50: > 100 µM (inactive) | IC50 [1]: > 100 µM

CCn1ncc(Br)c1C(=O)Nc1sc2c(c1C(N)=O)CCC2
IC50: > 100 µM (inactive) | IC50 [1]: > 100 µM

CCOC(=O)CSC1=Nc2ccccc2C2=NC(CC(=O)NCc3ccccc3)C(=O)N12 (configuration not stated)
IC50: > 100 µM (inactive) | IC50 [1]: > 100 µM

O=C(CC1Nc2ccccc2NC1=O)NC1CCCCC1 (configuration not stated)
IC50: > 100 µM (inactive) | IC50 [1]: > 100 µM

Cc1ccc(C(=O)NCc2ccco2)cc1S(=O)(=O)Nc1cccc(C)c1C
IC50: > 100 µM (inactive) | IC50 [1]: > 100 µM

Cc1cccc2cc3c(NC(=O)c4ccccn4)nn(C)c3nc12
IC50: > 100 µM (inactive) | IC50 [1]: 64.2 µM

O=C1CNC(=O)N1Cc1ccc(Br)cc1
IC50: > 100 µM (inactive) | IC50 [1]: > 100 µM

COC(=O)C(NC(=O)c1ccco1)(Nc1nc(C)cs1)C(F)(F)F (configuration not stated)
IC50: > 100 µM (inactive) | IC50 [1]: > 100 µM

CCCCC(=O)Nc1ccc(N2CCN(S(C)(=O)=O)CC2)cc1
IC50: > 100 µM (inactive) | IC50 [1]: > 100 µM

COc1ccccc1Nc1nc(C)cc(C)c1C(N)=O
IC50: > 100 µM (inactive) | IC50 [1]: > 100 µM

C=CCN(Cc1cccc(OC)c1OC)S(=O)(=O)N(C)C
IC50: > 100 µM (inactive) | IC50 [1]: > 100 µM

Cc1c(C(=O)Nc2nccs2)sc2nc(-c3cccs3)cc(C(F)(F)F)c12
IC50: > 100 µM (inactive) | IC50 [1]: > 100 µM

CCC(C)(C)n1nnnc1CN(Cc1cccs1)Cc1cc2cc(OC)ccc2[nH]c1=O
IC50: > 100 µM (inactive) | IC50 [1]: > 100 µM

O=C1c2ccncc2C(=O)N1C1CCCCC1
IC50: > 100 µM (inactive) | IC50 [1]: > 100 µM

CC(=O)Nc1ccc(Oc2cc(C#N)c(C#N)cc2N2CCCCCC2)cc1
IC50: > 100 µM (inactive) | IC50 [1]: > 100 µM

COc1cc(C(=S)N2CCCC2)cc(OC)c1O
IC50: > 100 µM (inactive) | IC50 [1]: > 100 µM

Cc1cc(C)c(C#N)c(SCC(=O)Nc2nnc(-c3ccccc3)s2)n1
IC50: > 100 µM (inactive) | IC50 [1]: > 100 µM

O=C(c1ccc(Br)o1)N1CCCc2ccccc21
IC50: > 100 µM (inactive) | IC50 [1]: > 100 µM

O=C(NC1CCCC1)C(c1ccsc1)N(Cc1ccco1)C(=O)Cc1cccs1 (configuration not stated)
IC50: > 100 µM (inactive) | IC50 [1]: > 100 µM

COc1ccccc1NC(=S)NNC(=O)c1ccccc1
IC50: > 100 µM (inactive) | IC50 [1]: > 100 µM

CCc1cc(=O)oc2cc3oc(C)c(C)c3cc12
IC50: > 100 µM (inactive) | IC50 [1]: > 100 µM

CC1Cc2ccccc2N1C(=O)Cn1c(=O)cc(O)c2ccccc21 (configuration not stated)
IC50: > 100 µM (inactive) | IC50 [1]: > 100 µM

Cc1ccc(OCCCC(=O)Nc2ccc(S(=O)(=O)Nc3cc(C)on3)cc2)cc1
IC50: > 100 µM (inactive) | IC50 [1]: > 100 µM

CCOC(=O)N1CCN(C(=O)c2ccc(N3CCCC3=O)cc2)CC1
IC50: > 100 µM (inactive) | IC50 [1]: > 100 µM

Cn1c(=O)[nH]c(=O)c2c1nc(Br)n2CCCCSc1nc2ccccc2o1
IC50: > 100 µM (inactive) | IC50 [1]: > 100 µM

O=C(OCCn1cncn1)c1cc2ccccc2oc1=O
IC50: > 100 µM (inactive) | IC50 [1]: > 100 µM

Cc1cccc(-n2nnc3cnn(C)c3c2=O)c1
IC50: > 100 µM (inactive) | IC50 [1]: > 100 µM

CCOC(=O)C1(CCSC)NC(c2ccco2)C2C(=O)N(C)C(=O)C21 (configuration not stated)
IC50: > 100 µM (inactive) | IC50 [1]: > 100 µM

Cc1cc(N)n2nc(-c3ccc(C(C)(C)C)cc3)cc2n1
IC50: inactive | IC50 [1]: 30.1 µM

CCN(CC(N)=O)S(=O)(=O)c1ccc(Br)cc1
IC50: > 100 µM (inactive) | IC50 [1]: > 100 µM

Cn1c(=O)n(CC(=O)N2CCC3(CC2)OCCO3)c(=O)c2ccccc21
IC50: > 100 µM (inactive) | IC50 [1]: > 100 µM

CN(C)S(=O)(=O)c1cccc(NC(=O)COC(=O)c2ccc(Br)o2)c1
IC50: > 100 µM (inactive) | IC50 [1]: > 100 µM

CCOC(=O)Cn1c(=O)c2c(nc3n2CCN3Cc2ccccc2)n(C)c1=O
IC50: > 100 µM (inactive) | IC50 [1]: > 100 µM

CC(=O)c1ccc(NC(=O)c2noc3c2CCCCC3)cc1
IC50: > 100 µM (inactive) | IC50 [1]: > 100 µM

CC1(C)CC(=O)C=C(NCCCNC2CCCCC2)C1
IC50: > 100 µM (inactive) | IC50 [1]: > 100 µM

CCC(C)Oc1cccc(OCCCCN2C(=O)NC(C)(C)C2=O)c1 (configuration not stated)
IC50: > 100 µM (inactive) | IC50 [1]: > 100 µM

CCC(=O)N(Cc1cc(=O)[nH]c2ccccc12)c1cccc(C)c1
IC50: > 100 µM (inactive) | IC50 [1]: > 100 µM

CC(=O)/C=C(\C)Nc1ccc(-c2cnc(-c3ccccc3)o2)cc1
IC50: inactive | IC50 [2]: > 100 µM | IC50 [1]: > 100 µM

O=C(N1CCOCC1)N1c2ccccc2CC(N2CCOCC2)c2ccccc21 (configuration not stated)
IC50: > 100 µM (inactive) | IC50 [1]: > 100 µM

N#Cc1c(/N=C/c2cc(Br)cs2)sc2c1CCC2
IC50: > 100 µM (inactive) | IC50 [1]: > 100 µM

CCCCNS(=O)(=O)c1cccc(S(=O)(=O)N2CCCC2)c1
IC50: > 100 µM (inactive) | IC50 [1]: > 100 µM

CN1C(=O)N(C)C(=O)C2(Cc3c(nc4ccccn4c3=O)N3CCc4ccccc4C32)C1=O (configuration not stated)
IC50: > 100 µM (inactive) | IC50 [1]: > 100 µM

Cn1c(=O)[nH]c(=O)c2c1nc(SCC(O)CO)n2Cc1ccccc1Cl (configuration not stated)
IC50: > 100 µM (inactive) | IC50 [1]: > 100 µM

O=C(C1CCN(S(=O)(=O)N2CCOCC2)CC1)N1CCOCC1
IC50: > 100 µM (inactive) | IC50 [2]: > 100 µM | IC50 [1]: > 100 µM

Cc1cccc(N2C(=O)c3cccnc3C2=O)c1
IC50: > 100 µM (inactive) | IC50 [1]: > 100 µM

CC(N=c1ccccn1C(=O)Nc1cccc(C(F)(F)F)c1)c1ccco1 (configuration not stated)
IC50: > 100 µM (inactive) | IC50 [1]: > 100 µM

CN1CCN(CCC(=O)Nc2ccc3c(c2)OCO3)CC1
IC50: > 100 µM (inactive) | IC50 [1]: > 100 µM

COc1ccc(C2C=C(c3ccccc3)Nc3nnnn32)cc1 (configuration not stated)
IC50: > 100 µM (inactive) | IC50 [1]: > 100 µM

CCOc1ccc(C2NC(=O)NC(C)=C2C(=O)OC)cc1C (configuration not stated)
IC50: inactive | IC50 [1]: 33.3 µM

Cc1ccc(N2CC(C(=O)Nc3ccccc3C(=O)NC3CCCCC3)CC2=O)cc1C (configuration not stated)
IC50: > 100 µM (inactive) | IC50 [1]: > 100 µM

CC(=O)Nc1ccc(OCC(O)CN2CCN(S(=O)(=O)c3ccc(NC(C)=O)cc3)CC2)cc1 (configuration not stated)
IC50: > 100 µM (inactive) | IC50 [1]: > 100 µM

O=C(CC(Nc1ccccc1)C(=O)O)c1ccccc1 (configuration not stated)
IC50: > 100 µM (inactive) | IC50 [1]: > 100 µM

COCC(=O)NC(c1ccccc1)c1ccccc1
IC50: > 100 µM (inactive) | IC50 [1]: > 100 µM

O=C(Nc1cccnc1)c1ccccc1Oc1ccccc1
IC50: > 100 µM (inactive) | IC50 [1]: > 100 µM
